In patent publication US20260364184A1, “COMPOUND BASED ON OXOISOINDOLINYL-SUBSTITUTED TETRAHYDROPYRIMIDINE-DIONE AND USE THEREOF” (GLUETACS THERAPEUTICS (SHANGHAI) CO., LTD., priority 2023, published 2026):

What was measured:
[1] = system: Human lung cancer cell line (H292); experiment: Inhibition of H292 cell proliferation (CellTiter luminescent viability); assay type: cell-based; conditions: NCI-H292, Table IE2, CDK4/6 inhibitor-based, 96 hours; for inhibition at 0.01 µM: H292, 10 nM, read-out: Inhibition Rate at 10 nM (%); for inhibition at 0.5 µM: H292, 500 nM, read-out: Inhibition Rate at 500 nM (%)
[2] = target: T1, CDK6 (Homo sapiens, UniProt Q00534+Q96SW2); experiment: Western blot degradation of CDK6; assay type: cell-based; conditions: MDA-MB-231 Cell; 24 hours
T1 construct: expression of target proteins in cells; endogenous in cells
T1 sequence (Q00534 whole entry): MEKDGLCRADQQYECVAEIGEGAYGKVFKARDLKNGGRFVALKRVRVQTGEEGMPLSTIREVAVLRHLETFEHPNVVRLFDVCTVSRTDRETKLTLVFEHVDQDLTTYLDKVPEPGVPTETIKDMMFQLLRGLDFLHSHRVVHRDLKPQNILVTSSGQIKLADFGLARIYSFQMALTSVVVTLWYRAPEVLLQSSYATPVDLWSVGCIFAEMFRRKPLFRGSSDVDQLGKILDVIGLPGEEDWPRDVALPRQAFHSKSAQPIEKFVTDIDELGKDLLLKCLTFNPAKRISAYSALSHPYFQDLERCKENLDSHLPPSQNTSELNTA
T1 sequence (Q96SW2 whole entry): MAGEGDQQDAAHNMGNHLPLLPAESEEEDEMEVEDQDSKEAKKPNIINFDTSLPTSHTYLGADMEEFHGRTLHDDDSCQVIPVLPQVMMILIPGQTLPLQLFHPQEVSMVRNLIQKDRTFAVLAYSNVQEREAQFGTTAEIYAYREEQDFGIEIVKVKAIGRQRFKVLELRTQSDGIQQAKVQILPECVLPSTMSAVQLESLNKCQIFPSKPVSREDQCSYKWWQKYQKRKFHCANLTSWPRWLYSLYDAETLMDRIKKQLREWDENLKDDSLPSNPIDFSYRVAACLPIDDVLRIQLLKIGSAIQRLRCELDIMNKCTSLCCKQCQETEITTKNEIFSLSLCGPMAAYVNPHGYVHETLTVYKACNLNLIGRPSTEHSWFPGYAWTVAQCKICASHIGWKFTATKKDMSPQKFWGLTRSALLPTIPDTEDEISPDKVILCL
T1 sequence (Q16531 whole entry partner): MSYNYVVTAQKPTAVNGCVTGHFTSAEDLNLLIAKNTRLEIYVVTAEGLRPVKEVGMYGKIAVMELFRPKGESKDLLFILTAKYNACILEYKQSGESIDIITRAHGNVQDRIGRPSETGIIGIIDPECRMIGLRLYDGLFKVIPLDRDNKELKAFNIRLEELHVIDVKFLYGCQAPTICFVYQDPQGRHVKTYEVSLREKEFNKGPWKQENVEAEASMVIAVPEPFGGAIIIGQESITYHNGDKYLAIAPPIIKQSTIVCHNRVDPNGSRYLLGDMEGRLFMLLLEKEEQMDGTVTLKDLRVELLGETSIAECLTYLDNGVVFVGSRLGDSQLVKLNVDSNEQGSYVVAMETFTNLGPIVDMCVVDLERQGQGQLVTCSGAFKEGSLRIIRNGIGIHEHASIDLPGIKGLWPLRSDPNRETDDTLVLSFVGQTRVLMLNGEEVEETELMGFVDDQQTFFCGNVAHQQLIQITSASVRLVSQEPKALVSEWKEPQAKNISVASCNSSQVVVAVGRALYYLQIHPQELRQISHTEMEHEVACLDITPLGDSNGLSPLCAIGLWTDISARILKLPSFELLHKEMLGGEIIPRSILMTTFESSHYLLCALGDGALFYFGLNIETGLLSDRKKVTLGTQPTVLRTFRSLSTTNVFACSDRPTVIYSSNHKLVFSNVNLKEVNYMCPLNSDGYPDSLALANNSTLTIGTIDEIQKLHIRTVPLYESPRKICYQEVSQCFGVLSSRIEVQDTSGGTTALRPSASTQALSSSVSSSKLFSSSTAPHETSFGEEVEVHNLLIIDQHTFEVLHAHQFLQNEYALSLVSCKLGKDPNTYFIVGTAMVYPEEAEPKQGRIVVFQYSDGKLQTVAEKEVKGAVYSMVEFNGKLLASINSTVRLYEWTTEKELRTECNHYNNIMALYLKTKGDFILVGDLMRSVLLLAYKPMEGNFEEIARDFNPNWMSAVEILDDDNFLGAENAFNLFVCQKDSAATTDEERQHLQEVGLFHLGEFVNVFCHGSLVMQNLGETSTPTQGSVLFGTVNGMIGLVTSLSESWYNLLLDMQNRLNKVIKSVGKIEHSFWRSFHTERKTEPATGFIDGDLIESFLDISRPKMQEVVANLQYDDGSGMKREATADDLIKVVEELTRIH
Protocol: (§1) Conventional Western blot assay was performed to evaluate the effects of the compounds of the present disclosure on the expression of target proteins in cells.
(§2) (1) Cell Seeding and Protein Harvesting: The selected cells were processed according to the cell seeding procedure and protein harvesting procedure in Table II-2.
(§3) (2) To the collected supernatant, 5×SDS sample loading buffer was added, followed by denaturation at 95 °C for 5 minutes. The denatured samples were then separated by SDS-PAGE electrophoresis on a polyacrylamide gel. Proteins were transferred to a nitrocellulose membrane (0.45 μm NC membrane), blocked with blocking buffer at room temperature for 1 hour, and subjected to antibody incubation and development procedures according to the antibody manufacturer's instructions (Cell Signaling Technology).
(§4) Half-Maximal Degradation Concentration value (the drug concentration required for degrading proteins by 50%, abbreviated as DC50) reads method: comparing the grayscale values of Western blot bands from drug-treated samples with those from blank DMSO-treated controls, and identifying the drug concentration range at which the grayscale value is half that of the DMSO-treated control bands.
(§5) DC50 values can be calculated using ImageJ software to measure grayscale values of Western blot bands from drug-treated samples. The concentration-response curve is fitted to estimate the drug concentration corresponding to half the grayscale value.
(§6) Target protein remaining (%) refers to the percentage of target protein remaining in cells after treatment with protein degrader compounds.
(§7) Calculation method for target protein remaining (%): Use ImageJ software to measure grayscale values of Western blot bands from drug (protein degrader)-treated samples. The grayscale value of drug-treated bands is divided by that of internal control protein bands, and the resulting quotient is normalized to obtain the relative percentage of remaining target protein after protein degrader treatment.
(§8) Target protein degradation rate (%)=1−target protein remaining (%).

[3] = target: T2, CDK4 (Homo sapiens, UniProt P11802+Q96SW2); experiment: Western blot degradation of CDK4; assay type: cell-based; conditions: MDA-MB-231 Cell; 24 hours
T2 construct: expression of target proteins in cells; endogenous in cells
T2 sequence (P11802 whole entry): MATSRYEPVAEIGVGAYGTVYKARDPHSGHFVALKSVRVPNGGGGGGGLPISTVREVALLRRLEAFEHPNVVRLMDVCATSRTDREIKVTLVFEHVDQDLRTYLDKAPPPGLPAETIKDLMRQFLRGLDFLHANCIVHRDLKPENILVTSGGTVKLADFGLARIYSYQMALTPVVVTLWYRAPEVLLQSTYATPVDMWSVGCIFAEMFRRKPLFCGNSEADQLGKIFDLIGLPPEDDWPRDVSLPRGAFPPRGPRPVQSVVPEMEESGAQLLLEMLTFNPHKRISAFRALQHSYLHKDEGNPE
T2 sequence (Q96SW2 whole entry): as the sequence (Q96SW2 whole entry) above
T2 sequence (Q16531 whole entry partner): as the sequence (Q16531 whole entry partner) above
Protocol: as §1, §2, §3, §4, §5, §6, §7, §8

[4] = system: Human myeloid monocytic leukemia cell line (MV-4-11); experiment: Inhibition of MV-4-11 cell proliferation (CellTiter luminescent viability); assay type: cell-based; conditions: Homo sapiens, MV4-11, Table IE3, CDK4/6 inhibitor-based, 96 hours; for inhibition at 0.01 µM: MV-4-11, 10 nM, read-out: Inhibition Rate at 10 nM (%); for inhibition at 0.5 µM: MV-4-11, 500 nM, read-out: Inhibition Rate at 500 nM (%)
Outline: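 IC50 is fitted from luminescent viability (CellTiter-Meiluncell) curves. Nine-point, 5-fold dilution series (top stock 2000 μM) are added at 0.5 μL per 100 μL medium to cells plated the day before, with growth at 37 °C and 5% CO2.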

[5] = target: T3, human Cereblon WT GST-tagged protein (CRBN) (Homo sapiens, UniProt Q96SW2); experiment: CRBN binding by HTRF (Cereblon binding kit)
T3 construct: purchased CISBIO 64BDCRBNPEH
T3 sequence (Q96SW2 whole entry): as the sequence (Q96SW2 whole entry) above
Outline: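 GST-tagged human Cereblon WT was incubated 3 h at room temperature with compound, thalidomide-Re tracer and Eu anti-GST antibody. Final compound concentrations were 10 to 0.00064 µM (7 points) or 2 and 0.5 µM. Inhibition rate was calculated from HTRF 665/620 nm ratios versus solvent and blank controls.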

Row | SMILES | inhibition at 0.01 µM [1] | inhibition at 0.5 µM [1] | Degradation of substrate protein CDK6 (substrate protein remaining %) [2] | Degradation of substrate protein CDK4 (substrate protein remaining %) [3] | inhibition at 0.01 µM [4] | inhibition at 0.5 µM [4] | inhibition at 0.5 µM ([5]; 0.5 μM, read-out: Inhibition Rate at 0.5 μM (%)) | inhibition at 2 µM ([5]; 2 μM, read-out: Inhibition Rate at 2 μM (%))
1 | CN(C)C(=O)c1cc2cnc(Nc3ccc(N4CCC(CN5CCN(c6cc7c(cc6F)C(=O)N(N6CCC(=O)NC6=O)C7=O)CC5)CC4)cn3)nc2n1C1CCCC1 [GT-05199, 7-cyclopentyl-2-((5-(4-((4-(2-(2,4-dioxotetrahydropyrimidin-1(2H)-yl)-6-fluoro-1,3-dioxoisoindolin-5-yl)piperazin-1-yl)methyl)piperidin-1-yl)pyridin-2-yl)amino)-N,N-dimethyl-7H-pyrrolo[2,3-d]pyrimidine-6-carboxamide] | 40 to 60% | 35 to 40% | A (0%≤substrate protein remaining %≤80%) | B (80%<substrate protein remaining %≤100%) |  |  |  | 
2 | CN(C)C(=O)c1cc2cnc(Nc3ccc(N4CCC(CN5CCN(C6CCN(c7ccc8c(c7)C(=O)N(N7CCC(=O)NC7=O)C8=O)CC6)CC5)CC4)cn3)nc2n1C1CCCC1 [GT-05205, 7-cyclopentyl-2-((5-(4-((4-(1-(2-(2,4-dioxotetrahydropyrimidin-1(2H)-yl)-1,3-dioxoisoindolin-5-yl)piperidin-4-yl)piperazin-1-yl)methyl)piperidin-1-yl)pyridin-2-yl)amino)-N,N-dimethyl-7H-pyrrolo[2,3-d]pyrimidine-6-carboxamide] | 35 to 40% | 35 to 40% | A (0%≤substrate protein remaining %≤80%) | B (80%<substrate protein remaining %≤100%) | 20 to 25% | 40 to 60% |  | 
3 | CN(C)C(=O)c1cc2cnc(Nc3ccc(N4CCN(CC5CCN(c6cccc7c6C(=O)N(N6CCC(=O)NC6=O)C7=O)CC5)CC4)cn3)nc2n1C1CCCC1 [GT-06338, 7-cyclopentyl-2-((5-(4-((1-(2-(2,4-dioxotetrahydropyrimidin-1(2H)-yl)-1,3-dioxoisoindolin-4-yl)piperidin-4-yl)methyl)piperazin-1-yl)pyridin-2-yl)amino)-N,N-dimethyl-7H-pyrrolo[2,3-d]pyrimidine-6-carboxamide] | 30 to 35% | 40 to 60% | A (0%≤substrate protein remaining %≤80%) | A (0%≤substrate protein remaining %≤80%) |  |  |  | 
4 | CN(C)C(=O)c1cc2cnc(Nc3ccc(N4CCC(N(C)Cc5ccc6c(c5)CN(N5CCC(=O)NC5=O)C6=O)CC4)cn3)nc2n1C1CCCC1 [GT-06487, 7-cyclopentyl-2-((5-(4-(((2-(2,4-dioxotetrahydropyrimidin-1(2H)-yl)-1-oxoisoindolin-5-yl)methyl)(methyl)amino)piperidin-1-yl)pyridin-2-yl)amino)-N,N-dimethyl-7H-pyrrolo[2,3-d]pyrimidine-6-carboxamide] | 25 to 30% | 40 to 60% | A (0%≤substrate protein remaining %≤80%) | A (0%≤substrate protein remaining %≤80%) |  |  |  | 
5 | CN(C)C(=O)c1cc2cnc(Nc3ccc(N4CCC(N(C)Cc5ccc6c(c5)C(=O)N(N5CCC(=O)NC5=O)C6=O)CC4)cn3)nc2n1C1CCCC1 [GT-06488, 7-cyclopentyl-2-((5-(4-(((2-(2,4-dioxotetrahydropyrimidin-1(2H)-yl)-1,3-dioxoisoindolin-5-yl)methyl)(methyl)amino)piperidin-1-yl)pyridin-2-yl)amino)-N,N-dimethyl-7H-pyrrolo[2,3-d]pyrimidine-6-carboxamide] |  |  | A (0%≤substrate protein remaining %≤80%) | B (80%<substrate protein remaining %≤100%) |  |  |  | 
6 | CN(C)C(=O)c1cc2cnc(Nc3ccc(N4CCC(N5CCN(Cc6ccc7c(c6)CN(N6CCC(=O)NC6=O)C7=O)CC5)CC4)cn3)nc2n1C1CCCC1 [GT-06497, 7-cyclopentyl-2-((5-(4-(4-((2-(2,4-dioxotetrahydropyrimidin-1(2H)-yl)-1-oxoisoindolin-5-yl)methyl)piperazin-1-yl)piperidin-1-yl)pyridin-2-yl)amino)-N,N-dimethyl-7H-pyrrolo[2,3-d]pyrimidine-6-carboxamide] |  |  | A (0%≤substrate protein remaining %≤80%) | A (0%≤substrate protein remaining %≤80%) |  |  |  | 
7 | CN(C)C(=O)c1cc2cnc(Nc3ccc(N4CCC(N5CCN(Cc6ccc7c(c6)C(=O)N(N6CCC(=O)NC6=O)C7=O)CC5)CC4)cn3)nc2n1C1CCCC1 [GT-06498, 7-cyclopentyl-2-((5-(4-(4-((2-(2,4-dioxotetrahydropyrimidin-1(2H)-yl)-1,3-dioxoisoindolin-5-yl)methyl)piperazin-1-yl)piperidin-1-yl)pyridin-2-yl)amino)-N,N-dimethyl-7H-pyrrolo[2,3-d]pyrimidine-6-carboxamide] |  |  | A (0%≤substrate protein remaining %≤80%) | A (0%≤substrate protein remaining %≤80%) |  |  |  | 
8 | CC(=O)c1c(C)c2cnc(Nc3ccc(N4CCC(N(C)Cc5ccc6c(c5)CN(N5CCC(=O)NC5=O)C6=O)CC4)cn3)nc2n(C2CCCC2)c1=O [GT-06586, 1-(5-(((1-(6-((6-acetyl-8-cyclopentyl-5-methyl-7-oxo-7,8-dihydropyrido[2,3-d]pyrimidin-2-yl)amino)pyridin-3-yl)piperidin-4-yl)(methyl)amino)methyl)-1-oxoisoindolin-2-yl)dihydropyrimidine-2,4 (1H,3H)-dione] |  |  | A (0%≤substrate protein remaining %≤80%) | A (0%≤substrate protein remaining %≤80%) | 25 to 30% | 40 to 60% |  | 
9 | Cc1nc2c(F)cc(-c3nc(Nc4ccc(CN5CCN(CC6CCN(c7ccc8c(c7)C(=O)N(N7CCC(=O)NC7=O)C8=O)CC6)CC5)cn4)ncc3F)cc2n1C(C)C [GT-06662, 2-(2,4-dioxotetrahydropyrimidin-1(2H)-yl)-5-(4-((4-((6-((5-fluoro-4-(4-fluoro-1-isopropyl-2-methyl-1H-benzo[d]imidazol-6-yl)pyrimidin-2-yl)amino)pyridin-3-yl)methyl)piperazin-1-yl)methyl)piperidin-1-yl)isoindoline-1,3-dione] |  |  | A (0%≤substrate protein remaining %≤80%) | B (80%<substrate protein remaining %≤100%) |  |  | 30 to 40% | 53 to 60%
10 | Cc1nc2c(F)cc(-c3nc(Nc4ccc(N5CCN(Cc6ccc7c(c6)C(=O)N(N6CCC(=O)NC6=O)C7=O)CC5)cn4)ncc3F)cc2n1C(C)C [GT-06673, 2-(2,4-dioxotetrahydropyrimidin-1(2H)-yl)-5-((4-(6-((5-fluoro-4-(4-fluoro-1-isopropyl-2-methyl-1H-benzo[d]imidazol-6-yl)pyrimidin-2-yl)amino)pyridin-3-yl)piperazin-1-yl)methyl)isoindoline-1,3-dione] |  |  | A (0%≤substrate protein remaining %≤80%) | B (80%<substrate protein remaining %≤100%) |  |  |  | 
11 | Cc1nc2c(F)cc(-c3nc(Nc4ccc(N5CCC(N(C)Cc6ccc7c(c6)C(=O)N(N6CCC(=O)NC6=O)C7=O)CC5)cn4)ncc3F)cc2n1C(C)C [GT-06732, 2-(2,4-dioxotetrahydropyrimidin-1(2H)-yl)-5-(((1-(6-((5-fluoro-4-(4-fluoro-1-isopropyl-2-methyl-1H-benzo[d]imidazol-6-yl)pyrimidin-2-yl)amino)pyridin-3-yl)piperidin-4-yl)(methyl)amino)methyl)isoindoline-1,3-dione] |  |  | A (0%≤substrate protein remaining %≤80%) | B (80%<substrate protein remaining %≤100%) |  |  |  | 
